Where only a bound is given, the exact number is not on record here.

The results in this text go back to ChEMBL document CHEMBL1156076, “Design and efficient synthesis of novel arylthiourea derivatives as potent hepatitis C virus inhibitors” (Bioorg Med Chem Lett, 2009).

Data set [1] can be described thus: Selectivity index, ratio of CC50 for human HuH7 cells to EC50 for HCV 1b. The arrangement: species or system Huh-7.
In data set [2] the test system is Hepatitis C virus. Kind of data set: Antiviral activity against HCV 1b infected in human HuH7 cells assessed as inhibition of viral sub-genomic replication by EG(delta-4AB)SEAP reporter protein assay. The settings on record: genotype 1b, Huh-7. The data set is classed as functional, organism-based, Hepacivirus hominis.
Data set [3] is described as follows: Cytotoxicity against human HuH7 cells. The data set is classed as cell-based, Huh-7.

On to `NC(=S)Nc1cccc(OCCCCCCCCNC(=S)Nc2ccc(C3CCCCC3)cc2)c1`, for which, in data set [1], the “Ratio CC50/EC50” value was above 704. In data set [2], the EC50 (as a rule, the midpoint of the concentration-response curve) came to 71 nM. For the same molecule, the half-maximal cytotoxic concentration (CC50) (commonly the concentration giving 50% cytotoxicity) in data set [3] is above 50000 nM.
In the case of `NC(=S)Nc1cccc(OCCCCCNC(=S)Nc2cccc3ccccc23)c1`, in data set [1], the “Ratio CC50/EC50” value is listed as above 111. Besides, in data set [2], the EC50 was 450 nM. In data set [3], this molecule showed a CC50 above 50000 nM.
As to `NC(=S)Nc1cccc(OCCCCCN2CCN(c3ccc(C4CCCCC4)cc3)C2=S)c1`, the “Ratio CC50/EC50” value in data set [1] is given as above 299. The EC50 in data set [2] was determined as 167 nM. In data set [3], the CC50 is above 50000 nM.
With `NC(=S)Nc1cccc(OCCCCCCCCNC(=S)Nc2cc(Cl)cc(Cl)c2)c1`, the “Ratio CC50/EC50” value in data set [1] is on record as 353. In data set [2], the EC50 stood at 34 nM. In data set [3], the CC50 is 12000 nM.
On to `NC(=S)Nc1cccc(OCCCCCCCCNC(=S)Nc2ccc3[nH]c4ccccc4c3c2)c1`, for which the “Ratio CC50/EC50” value in data set [1] is listed as above 562. In addition, the EC50 in data set [2] amounted to 89 nM. In data set [3], this molecule returned a cytotoxic concentration (CC50) above 50000 nM.
Take `CCn1c2ccccc2c2cc(NC(=S)NCCCCCCCCOc3cccc(NC(N)=S)c3)ccc21`: the “Ratio CC50/EC50” value in data set [1] is above 926. The EC50 in data set [2] turned out to be 54 nM. The molecule also came in with a CC50 in data set [3] above 50000 nM.
For `NC(=S)Nc1cccc(OCCCCCCCCNC(=S)Nc2ccccc2Br)c1`, in data set [1], the “Ratio CC50/EC50” value worked out at 275. Moreover, the EC50 in data set [2] is 131 nM. The CC50 in data set [3] came to 36000 nM.
The matching figures for `Cn1c2ccccc2c2cc(NC(=S)NCCCCCCCCOc3cccc(NC(N)=S)c3)ccc21`: above 625, 80 nM and above 50000 nM.
Turning to `NC(=S)Nc1cccc(OCCCCCN2CCN(c3ccccc3-c3ccccc3)C2=S)c1`, the “Ratio CC50/EC50” value in data set [1] was above 214. In data set [2], the half-maximal effective concentration (EC50) was determined as 234 nM. The same molecule displayed a 50% cytotoxic concentration (CC50) in data set [3] above 50000 nM.
As to `NC(=S)Nc1cccc(OCCCCCCCCNC(=S)Nc2ccc3c(c2)C(=O)c2ccccc2-3)c1`, the “Ratio CC50/EC50” value in data set [1] was above 943. Besides, the concentration giving a half-maximal response (EC50) in data set [2] was 53 nM. In addition, the 50% cytotoxic concentration (CC50) in data set [3] was above 50000 nM.
The like results for `NC(=S)Nc1cccc(OCCCCCCCCNC(=S)Nc2ccc3c(c2)c2ccccc2n3-c2ccccc2)c1` were, in that order, above 521, 96 nM and above 50000 nM.
The like results for `CCCCCCn1c2ccccc2c2cc(NC(=S)NCCCCCCCCOc3cccc(NC(N)=S)c3)ccc21` were, in that order, above 1389, 36 nM and above 50000 nM.
The like results for `Cc1cc(C)cc(-n2c3ccccc3c3cc(NC(=S)NCCCCCCCCOc4cccc(NC(N)=S)c4)ccc32)c1` were, in that order, above 1136, 44 nM and above 50000 nM.
For `NC(=S)Nc1cccc(OCCCCCCCCNC(=S)Nc2ccccc2)c1`, the “Ratio CC50/EC50” value in data set [1] is reported as above 459. Further, in data set [2], the EC50 was determined as 109 nM. The molecule further had a CC50 in data set [3] above 50000 nM.
Consider `NC(=S)Nc1cccc(OCCCCCNC(=O)Nc2cccc3ccccc23)c1`, for which the “Ratio CC50/EC50” value in data set [1] is on record as above 36. In addition, the EC50 in data set [2] was 1390 nM. The CC50 in data set [3] was above 50000 nM.
The like results for `Cc1ccc(OCCCCCNC(=S)Nc2cccc3ccccc23)cc1NC(N)=S` were, in that order, above 49, 1030 nM and above 50000 nM.
As for `NC(=S)Nc1cccc(OCCCCCN2CCN(c3cccnc3)C2=O)c1`, the “Ratio CC50/EC50” value in data set [1] was above 1. The EC50 in data set [2] was above 50000 nM. In data set [3], this molecule gave a cytotoxic concentration (CC50) above 50000 nM.
With `NC(=S)Nc1cccc(OCCCCCN2CCN(c3cccc4ccccc34)C2=O)c1`, in data set [1], the “Ratio CC50/EC50” value turned out to be 26. Besides, the EC50 in data set [2] came out at 570 nM. Moreover, the CC50 in data set [3] came out at 15000 nM.
The matching figures for `CCCCn1c2ccccc2c2cc(NC(=S)NCCCCCCCCOc3cccc(NC(N)=S)c3)ccc21`: above 1111, 45 nM and above 50000 nM.
The matching figures for `NC(=S)Nc1cccc(OCCCCCCCCNC(=S)Nc2ccc3c(c2)Cc2ccccc2-3)c1`: 212, 118 nM and 25000 nM.
The matching figures for `NC(=S)Nc1cccc(OCCCCCCCCNC(=S)Nc2ccc3c(c2)CCC3)c1`: 425, 80 nM and 34000 nM.
As to `NC(=S)Nc1cccc(OCCCCCN2CCCN(c3ccc(Cl)cc3)C2=O)c1`, the “Ratio CC50/EC50” value in data set [1] came to 10. Further, in data set [2], the EC50 is 1500 nM. In addition, the CC50 in data set [3] came out at 15000 nM.
The matching figures for `NC(=S)Nc1cccc(OCCCCCCCCNC(=S)Nc2cccc(Br)c2)c1`: 215, 93 nM and 20000 nM.
The like results for `CC(C)(C)c1ccc(NC(=S)NCCCCCCCCOc2cccc(NC(N)=S)c2)cc1` were, in that order, 283, 60 nM and 17000 nM.
As to `NC(=S)Nc1cccc(OCCCCCCCCNC(=S)Nc2ccc3c(c2)c2ccccc2n3Cc2ccccc2)c1`, in data set [1], the “Ratio CC50/EC50” value is given as above 1389. In addition, the half-maximal effective concentration (EC50) in data set [2] stood at 36 nM. The molecule further registered a CC50 in data set [3] above 50000 nM.
With `CCCn1c2ccccc2c2cc(NC(=S)NCCCCCCCCOc3cccc(NC(N)=S)c3)ccc21`, in data set [1], the “Ratio CC50/EC50” value is above 1042. Besides, in data set [2], the EC50 was determined as 48 nM. The molecule further displayed a cytotoxic concentration (CC50) in data set [3] above 50000 nM.
The matching figures for `NC(=S)Nc1cccc(OCCCCCCCNC(=S)Nc2cc(Cl)cc(Cl)c2)c1`: 227, 88 nM and 20000 nM.
The matching figures for `NC(=S)Nc1cccc(OCCCCCN2CCN(c3ccc(Cl)cc3)C2=S)c1`: above 192, 260 nM and above 50000 nM.
The like results for `NC(=S)Nc1cccc(OCCCCCCCCNC(=S)Nc2ccc3c(c2)c2ccccc2n3CCc2ccccc2)c1` were, in that order, above 1515, 33 nM and above 50000 nM.
For the molecule `NC(=S)Nc1cccc(OCCCCCN2CCN(c3ccc(Cl)c(Cl)c3)C2=O)c1`, in data set [1], the “Ratio CC50/EC50” value is listed as 62. For the same molecule, the EC50 in data set [2] was found to be 210 nM. Besides, it took 13000 nM to reach half-maximal cytotoxicity in data set [3] (CC50).
For the molecule `NC(=S)Nc1cccc(OCCCCCCCCNC(=S)Nc2ccc(Br)cc2)c1`, in data set [1], the “Ratio CC50/EC50” value turned out to be 383. Besides, the EC50 in data set [2] is 47 nM. This molecule also had a half-maximal cytotoxic concentration (CC50) in data set [3] of 18000 nM.
The like results for `NC(=S)Nc1cccc(OCCCCCCCCNC(=S)Nc2ccc3[nH]ccc3c2)c1` were, in that order, 122, 148 nM and 18000 nM.
The matching figures for `NC(=S)Nc1cccc(OCCCCCNC(=S)Nc2ccc(Cl)cc2)c1`: above 98, 510 nM and above 50000 nM.
The like results for `NC(=S)Nc1cccc(OCCCCCN2CCCCN(c3ccc(Cl)cc3)C2=O)c1` were, in that order, 52, 250 nM and 13000 nM.
With `NC(=S)Nc1cccc(OCCCCCN2CCN(c3ccc(C4CCCCC4)cc3)C2=O)c1`, the “Ratio CC50/EC50” value in data set [1] was found to be 41. Further, the EC50 in data set [2] turned out to be 290 nM. Besides, the midpoint of cytotoxicity in data set [3], the CC50, lay at 12000 nM.
The matching figures for `NC(=S)Nc1cccc(OCCCCCN2CCN(c3ccccc3-c3ccccc3)C2=O)c1`: 30, 396 nM and 12000 nM.
The matching figures for `NC(=S)Nc1cccc(OCCCCCc2ccccc2)c1`: 458, 48 nM and 22000 nM.
The matching figures for `Cc1c(NC(N)=S)cccc1OCCCCCNC(=S)Nc1cccc2ccccc12`: above 1, above 50000 nM and above 50000 nM.
Regarding `Cc1ccc(-n2c3ccccc3c3cc(NC(=S)NCCCCCCCCOc4cccc(NC(N)=S)c4)ccc32)cc1`, the “Ratio CC50/EC50” value in data set [1] was above 1612. Besides, the EC50 in data set [2] turned out to be 31 nM. For the same molecule, the CC50 in data set [3] was above 50000 nM.
The matching figures for `NC(=S)Nc1cccc(OCCCCCCCCNC(=S)Nc2ccc(Cl)cc2)c1`: 290, 62 nM and 18000 nM.
The matching figures for `NC(=S)Nc1cccc(OCCCCCN2CCN(c3ccc(Cl)cc3)C2=O)c1`: 139, 280 nM and 39000 nM.
For `NC(=S)Nc1cccc(OCCCCCN2CCN(c3ccc(Cl)c(Cl)c3)C2=S)c1`, in data set [1], the “Ratio CC50/EC50” value was above 250. The concentration giving a half-maximal response (EC50) in data set [2] was 200 nM. For the same molecule, the half-maximal cytotoxic concentration (CC50) in data set [3] was above 50000 nM.
The like results for `NC(=S)Nc1cccc(OCCCCCCCCNC(=S)Nc2ccc(N3CCOCC3)cc2)c1` were, in that order, above 158, 316 nM and above 50000 nM.
Take `NC(=S)Nc1cccc(OCCCCCN2CCN(c3ccc(Oc4ccccc4)cc3)C2=O)c1`: the “Ratio CC50/EC50” value in data set [1] is recorded as above 2. For the same molecule, the EC50 in data set [2] came out at 27000 nM. The molecule further gave a CC50 in data set [3] above 50000 nM.
The like results for `CCCCCn1c2ccccc2c2cc(NC(=S)NCCCCCCCCOc3cccc(NC(N)=S)c3)ccc21` were, in that order, above 1190, 42 nM and above 50000 nM.
The matching figures for `NC(=S)Nc1cccc(OCCCCCNC(=S)Nc2cc(Cl)cc(Cl)c2)c1`: 102, 177 nM and 18000 nM.
The matching figures for `NC(=S)Nc1cccc(OCCCCCCNC(=S)Nc2cc(Cl)cc(Cl)c2)c1`: 172, 122 nM and 21000 nM.
